Test results as given in ChEMBL document CHEMBL1275270, “Antioxidant activity of unexplored indole derivatives: synthesis and screening” (Eur J Med Chem, 2010).
Active and inactive are the calls of the source. The rule behind the calls is not given here.

Key:
Format in all cases: functional
[1] = Antioxidant activity assessed as inhibition of H2O2-induced oxidation of lucigenin
[2] = Antioxidant activity assessed as superoxide radical scavenging activity by NBT reduction assay
[3] = Antioxidant activity assessed as inhibition of HOCl-induced oxidation of DHR by rhodamine 123 staining
[4] = Antioxidant activity assessed as inhibition of peroxynitrite anion-induced oxidation of non-fluorescent DHR by rhodamine 123 staining in presence of NaHCO3
[5] = Antioxidant activity assessed as inhibition of nitric oxide-induced oxidation of non-fluorescent DAF-2 by fluorescence assay
[6] = Antioxidant activity assessed as trolox equivalent of peroxyl radical scavenging activity by ORAC assay
[7] = Antioxidant activity assessed as inhibition of peroxynitrite anion-induced oxidation of non-fluorescent DHR by rhodamine 123 staining in absence of NaHCO3
[8] = Antioxidant activity assessed as inhibition of singlet oxygen-induced oxidation of DHR by rhodamine 123 staining

Compound: COC(=O)[C@H](Cc1cn(CCC(C)C)c2ccccc12)NC(C)=O
- inhibition [1]: inactive
- Activity [2]: inactive
- IC50 [3]: 8.35 µM
- IC50 [4]: 315 µM
- IC50 [5]: Not Active
- fold change (FC) [6]: 0.28
- IC50 ([7]; read-out: IC50): 548 µM
- IC50 ([8]; read-out: IC50): 718 µM

Compound: COC(=O)[C@H](Cc1cn(C/C=C/c2ccccc2)c2ccccc12)NC(C)=O
- inhibition [1]: inactive
- Activity [2]: inactive
- IC50 [3]: 67.7 µM
- IC50 [4]: 36.3 µM
- IC50 [5]: Not Active
- fold change (FC) [6]: 0.44
- IC50 ([7]; read-out: IC50): 218 µM
- IC50 ([8]; read-out: IC50): 971 µM

Compound: COC(=O)C(Cc1c(CC=C(C)C)[nH]c2ccccc12)N1C(=O)c2ccccc2C1=O (stereo not given)
- inhibition [1]: inactive
- Activity [2]: inactive
- IC50 [3]: 7.18 µM
- IC50 [4]: 28.2 µM
- IC50 ([5]; read-out: IC50): 239 µM
- fold change (FC) [6]: 0.45
- IC50 [7]: Not Active
- IC50 ([8]; read-out: IC50): 2310 µM

Compound: O=C1c2ccccc2C(=O)N1CCc1c[nH]c2ccccc12
- inhibition [1]: inactive
- Activity [2]: inactive
- IC50 [3]: 11.1 µM
- IC50 [4]: 40.9 µM
- IC50 [5]: Not Active
- fold change (FC) [6]: 1.46
- IC50 ([7]; read-out: IC50): 93 µM
- IC50 [8]: Not Active

Compound: COC(=O)[C@H](Cc1cn(CC=C(C)C)c2ccccc12)NC(C)=O
- inhibition [1]: inactive
- Activity [2]: inactive
- IC50 [3]: 32.8 µM
- IC50 [4]: 162 µM
- IC50 ([5]; read-out: IC50): 980 µM
- fold change (FC) [6]: 0.21
- IC50 ([7]; read-out: IC50): 545 µM
- IC50 ([8]; read-out: IC50): 777 µM

Compound: COC(=O)C(Cc1c[nH]c2ccccc12)N1C(=O)c2ccccc2C1=O (stereo not given)
- inhibition [1]: inactive
- Activity [2]: inactive
- IC50 [3]: 27.3 µM
- IC50 [4]: 29.5 µM
- IC50 [5]: Not Active
- fold change (FC) [6]: 1.09
- IC50 ([7]; read-out: IC50): 208 µM
- IC50 ([8]; read-out: IC50): 943 µM

Compound: CC(C)=CCn1cc(CCN2C(=O)c3ccccc3C2=O)c2ccccc21
- inhibition [1]: inactive
- Activity [2]: inactive
- IC50 [3]: 6.34 µM
- IC50 [4]: 192 µM
- IC50 [5]: Not Active
- fold change (FC) [6]: inactive
- IC50 [7]: Not Active
- IC50 [8]: Not Active

Compound: CC(C)=CCn1cc(CCN)c2ccccc21
- inhibition [1]: inactive
- Activity [2]: inactive
- IC50 [3]: 26.2 µM
- IC50 [4]: 234 µM
- IC50 ([5]; read-out: IC50): 1430 µM
- fold change (FC) [6]: 0.96
- IC50 ([7]; read-out: IC50): 905 µM
- IC50 ([8]; read-out: IC50): 618 µM

Compound: NCCc1c[nH]c2ccccc12 [TRYPTAMINE]
- inhibition [1]: inactive
- Activity [2]: inactive
- IC50 [3]: 6 µM
- IC50 [4]: 10.4 µM
- IC50 ([5]; read-out: IC50): 672 µM
- fold change (FC) [6]: 1.86
- IC50 ([7]; read-out: IC50): 31.8 µM
- IC50 ([8]; read-out: IC50): 682 µM

Compound: CC(C)CCn1cc(CCN2C(=O)c3ccccc3C2=O)c2ccccc21
- inhibition [1]: inactive
- Activity [2]: inactive
- IC50 [3]: 10.6 µM
- IC50 [4]: 237 µM
- IC50 ([5]; read-out: IC50): 1530 µM
- fold change (FC) [6]: inactive
- IC50 [7]: Not Active
- IC50 ([8]; read-out: IC50): 1030 µM

Compound: COC(=O)C(Cc1cn(CC=C(C)C)c2ccccc12)N1C(=O)c2ccccc2C1=O (stereo not given)
- inhibition [1]: inactive
- Activity [2]: inactive
- IC50 [3]: 34.3 µM
- IC50 [4]: 241 µM
- IC50 [5]: Not Active
- fold change (FC) [6]: 0.36
- IC50 [7]: Not Active
- IC50 ([8]; read-out: IC50): 2860 µM

Compound: COC(=O)[C@H](Cc1c[nH]c2ccccc12)NC(C)=O
- inhibition [1]: inactive
- Activity [2]: inactive
- IC50 [3]: 50 µM
- IC50 [4]: 22.9 µM
- IC50 [5]: Not Active
- fold change (FC) [6]: 1.21
- IC50 ([7]; read-out: IC50): 223 µM
- IC50 ([8]; read-out: IC50): 1560 µM

Compound: CC(C)=CCc1[nH]c2ccccc2c1CC(N)C(=O)O (stereo not given)
- inhibition [1]: inactive
- Activity [2]: inactive
- IC50 [3]: 4.56 µM
- fold change (FC) [6]: 0.48

Compound: CC(C)=CCn1cc(CC(N)C(=O)O)c2ccccc21 (stereo not given)
- inhibition [1]: inactive
- Activity [2]: inactive
- IC50 [3]: 4.13 µM
- IC50 [4]: 42.4 µM
- IC50 ([5]; read-out: IC50): 208 µM
- fold change (FC) [6]: 1.05
- IC50 ([7]; read-out: IC50): 94.7 µM
- IC50 ([8]; read-out: IC50): 841 µM

Compound: N[C@@H](Cc1c[nH]c2ccccc12)C(=O)O [TRYPTOPHAN]
- inhibition [1]: inactive
- Activity [2]: inactive
- IC50 [3]: 3.5 µM
- IC50 [4]: 19.2 µM
- IC50 ([5]; read-out: IC50): 1150 µM
- fold change (FC) [6]: 2.74
- IC50 ([7]; read-out: IC50): 31.9 µM
- IC50 ([8]; read-out: IC50): 992 µM

Compound: COC(=O)[C@H](Cc1cn(CCCc2ccccc2)c2ccccc12)NC(C)=O
- inhibition [1]: inactive
- Activity [2]: inactive
- IC50 [3]: 14.2 µM
- IC50 [4]: 142 µM
- IC50 [5]: Not Active
- fold change (FC) [6]: 0.44
- IC50 [7]: Not Active
- IC50 ([8]; read-out: IC50): 506 µM

Compound: COC(=O)[C@@H](N)Cc1c[nH]c2ccccc12 [TRYPTOPHAN METHYL ESTER]
- inhibition [1]: inactive
- Activity [2]: inactive
- IC50 [3]: 9.6 µM
- IC50 [4]: 13.1 µM
- IC50 [5]: Not Active
- fold change (FC) [6]: 2.6
- IC50 ([7]; read-out: IC50): 47.8 µM
- IC50 ([8]; read-out: IC50): 1040 µM

Compound: COC(=O)C(Cc1c(CCC(C)C)[nH]c2ccccc12)N1C(=O)c2ccccc2C1=O (stereo not given)
- inhibition [1]: inactive
- Activity [2]: inactive
- IC50 [3]: 3.75 µM
- IC50 [4]: 14 µM
- IC50 [5]: Not Active
- fold change (FC) [6]: 0.97
- IC50 [7]: Not Active
- IC50 ([8]; read-out: IC50): 750 µM
